# Laboratory results taken from PubChem BioAssay (NCI).
#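 Protocol summary: plate cells (96-well), add compound at 5 concentrations, incubate 48 h, interpolate endpoints linearly. TGI is the concentration that stops growth completely.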
# Legend:
# Assay in all cases: growth of human tumour cells (NCI), 48 h
# 786-0 renal = system: 786-0 renal
# A498 renal = system: A498 renal
# A549 NSCLC = system: A549 NSCLC
# ACHN renal = system: ACHN renal
# CAKI-1 renal = system: CAKI-1 renal
# CCRF-CEM leukemia = system: CCRF-CEM leukemia
# COLO 205 colon = system: COLO 205 colon
# DU-145 prostate = system: DU-145 prostate
# EKVX NSCLC = system: EKVX NSCLC
# HCC-2998 colon = system: HCC-2998 colon
# HCT-116 colon = system: HCT-116 colon
# HCT-15 colon = system: HCT-15 colon
# HL-60(TB) leukemia = system: HL-60(TB) leukemia
# HOP-62 NSCLC = system: HOP-62 NSCLC
# HOP-92 NSCLC = system: HOP-92 NSCLC
# HS 578T breast = system: HS 578T breast
# HT29 colon = system: HT29 colon
# IGROV1 ovarian = system: IGROV1 ovarian
# K-562 leukemia = system: K-562 leukemia
# KM12 colon = system: KM12 colon
# LOX IMVI melanoma = system: LOX IMVI melanoma
# M14 melanoma = system: M14 melanoma
# MALME-3M melanoma = system: MALME-3M melanoma
# MCF7 breast = system: MCF7 breast
# MDA-MB-231 breast = system: MDA-MB-231 breast
# MDA-MB-435 = system: MDA-MB-435
# MDA-N = system: MDA-N
# MOLT-4 leukemia = system: MOLT-4 leukemia
# NCI-H226 lung = system: NCI-H226 lung
# NCI-H23 lung = system: NCI-H23 lung
# NCI-H460 lung = system: NCI-H460 lung
# NCI-H522 lung = system: NCI-H522 lung
# NCI/ADR-RES ovarian = system: NCI/ADR-RES ovarian
# OVCAR-3 ovarian = system: OVCAR-3 ovarian
# OVCAR-4 ovarian = system: OVCAR-4 ovarian
# OVCAR-5 ovarian = system: OVCAR-5 ovarian
# OVCAR-8 ovarian = system: OVCAR-8 ovarian
# PC-3 prostate = system: PC-3 prostate
# RPMI-8226 leukemia = system: RPMI-8226 leukemia
# RXF 393 renal = system: RXF 393 renal
# SF-268 CNS = system: SF-268 CNS
# SF-295 CNS = system: SF-295 CNS
# SF-539 CNS = system: SF-539 CNS
# SK-MEL-2 melanoma = system: SK-MEL-2 melanoma
# SK-MEL-28 melanoma = system: SK-MEL-28 melanoma
# SK-MEL-5 melanoma = system: SK-MEL-5 melanoma
# SK-OV-3 ovarian = system: SK-OV-3 ovarian
# SN12C renal = system: SN12C renal
# SNB-19 CNS = system: SNB-19 CNS
# SNB-75 CNS = system: SNB-75 CNS
# SR leukemia = system: SR leukemia
# SW-620 colon = system: SW-620 colon
# T-47D breast = system: T-47D breast
# TK-10 renal = system: TK-10 renal
# U251 CNS = system: U251 CNS
# UACC-257 melanoma = system: UACC-257 melanoma
# UO-31 renal = system: UO-31 renal
# BT-549 breast = system: BT-549 breast
# UACC-62 melanoma = system: UACC-62 melanoma
structure (smiles),measurement,setting,value
CCOC(=O)NC(NC1=NCCS1)(C(=O)OCC)C(F)(F)F (configuration not stated),TGI,786-0 renal,> 100 µM
same,TGI,A498 renal,> 100 µM
same,TGI,A549 NSCLC,> 100 µM
same,TGI,ACHN renal,> 100 µM
same,TGI,CAKI-1 renal,> 100 µM
same,TGI,CCRF-CEM leukemia,> 100 µM
same,TGI,COLO 205 colon,> 100 µM
same,TGI,DU-145 prostate,> 100 µM
same,TGI,EKVX NSCLC,> 100 µM
same,TGI,HCC-2998 colon,> 100 µM
same,TGI,HCT-116 colon,> 100 µM
same,TGI,HCT-15 colon,> 100 µM
same,TGI,HL-60(TB) leukemia,> 100 µM
same,TGI,HOP-62 NSCLC,> 100 µM
same,TGI,HOP-92 NSCLC,> 100 µM
same,TGI,HS 578T breast,> 100 µM
same,TGI,HT29 colon,> 100 µM
same,TGI,IGROV1 ovarian,> 100 µM
same,TGI,K-562 leukemia,> 100 µM
same,TGI,KM12 colon,> 100 µM
same,TGI,LOX IMVI melanoma,> 100 µM
same,TGI,M14 melanoma,> 100 µM
same,TGI,MALME-3M melanoma,> 100 µM
same,TGI,MCF7 breast,> 100 µM
same,TGI,MDA-MB-231 breast,> 100 µM
same,TGI,MDA-MB-435,> 100 µM
same,TGI,MDA-N,> 100 µM
same,TGI,MOLT-4 leukemia,> 100 µM
same,TGI,NCI-H226 lung,> 100 µM
same,TGI,NCI-H23 lung,> 100 µM
same,TGI,NCI-H460 lung,> 100 µM
same,TGI,NCI-H522 lung,> 100 µM
same,TGI,NCI/ADR-RES ovarian,> 100 µM
same,TGI,OVCAR-3 ovarian,> 100 µM
same,TGI,OVCAR-4 ovarian,> 100 µM
same,TGI,OVCAR-5 ovarian,> 100 µM
same,TGI,OVCAR-8 ovarian,> 100 µM
same,TGI,PC-3 prostate,> 100 µM
same,TGI,RPMI-8226 leukemia,> 100 µM
same,TGI,RXF 393 renal,> 100 µM
same,TGI,SF-268 CNS,> 100 µM
same,TGI,SF-295 CNS,> 100 µM
same,TGI,SF-539 CNS,> 100 µM
same,TGI,SK-MEL-2 melanoma,> 100 µM
same,TGI,SK-MEL-28 melanoma,> 100 µM
same,TGI,SK-MEL-5 melanoma,> 100 µM
same,TGI,SK-OV-3 ovarian,> 100 µM
same,TGI,SN12C renal,> 100 µM
same,TGI,SNB-19 CNS,> 100 µM
same,TGI,SNB-75 CNS,> 100 µM
same,TGI,SR leukemia,> 100 µM
same,TGI,SW-620 colon,> 100 µM
same,TGI,T-47D breast,> 100 µM
same,TGI,TK-10 renal,> 100 µM
same,TGI,U251 CNS,> 100 µM
same,TGI,UACC-257 melanoma,> 100 µM
same,TGI,UO-31 renal,> 100 µM
CCn1cc(C(=O)O)c(=O)c2cc3c(cc21)S(=O)(=O)CC3,TGI,786-0 renal,> 100 µM
same,TGI,A498 renal,> 100 µM
same,TGI,A549 NSCLC,> 100 µM
same,TGI,ACHN renal,> 100 µM
same,TGI,BT-549 breast,> 100 µM
same,TGI,CAKI-1 renal,> 100 µM
same,TGI,CCRF-CEM leukemia,> 100 µM
same,TGI,COLO 205 colon,> 100 µM
same,TGI,DU-145 prostate,> 100 µM
same,TGI,EKVX NSCLC,> 100 µM
same,TGI,HCC-2998 colon,> 100 µM
same,TGI,HCT-116 colon,> 100 µM
same,TGI,HCT-15 colon,> 100 µM
same,TGI,HL-60(TB) leukemia,> 100 µM
same,TGI,HOP-62 NSCLC,> 100 µM
same,TGI,HOP-92 NSCLC,> 100 µM
same,TGI,HS 578T breast,> 100 µM
same,TGI,HT29 colon,> 100 µM
same,TGI,IGROV1 ovarian,> 100 µM
same,TGI,K-562 leukemia,> 100 µM
same,TGI,KM12 colon,> 100 µM
same,TGI,LOX IMVI melanoma,> 100 µM
same,TGI,M14 melanoma,> 100 µM
same,TGI,MALME-3M melanoma,> 100 µM
same,TGI,MCF7 breast,> 100 µM
same,TGI,MDA-MB-231 breast,> 100 µM
same,TGI,MDA-MB-435,> 100 µM
same,TGI,MDA-N,> 100 µM
same,TGI,MOLT-4 leukemia,> 100 µM
same,TGI,NCI-H226 lung,> 100 µM
same,TGI,NCI-H23 lung,> 100 µM
same,TGI,NCI-H460 lung,> 100 µM
same,TGI,NCI-H522 lung,> 100 µM
same,TGI,NCI/ADR-RES ovarian,> 100 µM
same,TGI,OVCAR-3 ovarian,> 100 µM
same,TGI,OVCAR-4 ovarian,> 100 µM
same,TGI,OVCAR-5 ovarian,> 100 µM
same,TGI,OVCAR-8 ovarian,> 100 µM
same,TGI,PC-3 prostate,> 100 µM
same,TGI,RPMI-8226 leukemia,> 100 µM
same,TGI,RXF 393 renal,> 100 µM
same,TGI,SF-268 CNS,> 100 µM
same,TGI,SF-295 CNS,> 100 µM
same,TGI,SF-539 CNS,> 100 µM
same,TGI,SK-MEL-2 melanoma,> 100 µM
same,TGI,SK-MEL-28 melanoma,> 100 µM
same,TGI,SK-MEL-5 melanoma,> 100 µM
same,TGI,SK-OV-3 ovarian,> 100 µM
same,TGI,SN12C renal,> 100 µM
same,TGI,SNB-19 CNS,> 100 µM
same,TGI,SNB-75 CNS,> 100 µM
same,TGI,SW-620 colon,> 100 µM
same,TGI,T-47D breast,> 100 µM
same,TGI,TK-10 renal,> 100 µM
same,TGI,U251 CNS,> 100 µM
same,TGI,UACC-257 melanoma,> 100 µM
same,TGI,UACC-62 melanoma,> 100 µM
same,TGI,UO-31 renal,> 100 µM
CSc1c(C#N)c(N)nc2c(N=Nc3ccc(Cl)cc3)c(N)nn12,TGI,786-0 renal,7.1 µM
same,TGI,A498 renal,> 100 µM
same,TGI,A549 NSCLC,> 73.8 µM
same,TGI,ACHN renal,12.4 µM
same,TGI,BT-549 breast,9.97 µM
same,TGI,CAKI-1 renal,34.5 µM
same,TGI,CCRF-CEM leukemia,5.47 µM
same,TGI,COLO 205 colon,30.3 µM
same,TGI,DU-145 prostate,5.7 µM
same,TGI,EKVX NSCLC,11.4 µM
same,TGI,HCC-2998 colon,14.8 µM
same,TGI,HCT-15 colon,5.5 µM
same,TGI,HL-60(TB) leukemia,5.23 µM
same,TGI,HOP-62 NSCLC,28.6 µM
same,TGI,HOP-92 NSCLC,8.64 µM
same,TGI,HS 578T breast,3.43 µM
same,TGI,HT29 colon,8.38 µM
same,TGI,IGROV1 ovarian,3.46 µM
same,TGI,K-562 leukemia,4.75 µM
same,TGI,KM12 colon,11.8 µM
same,TGI,LOX IMVI melanoma,2.87 µM
same,TGI,M14 melanoma,47.6 µM
same,TGI,MALME-3M melanoma,16.4 µM
same,TGI,MCF7 breast,4.71 µM
same,TGI,MDA-MB-231 breast,4.85 µM
same,TGI,MDA-MB-435,28.1 µM
same,TGI,MDA-N,23.4 µM
same,TGI,MOLT-4 leukemia,5.47 µM
same,TGI,NCI-H226 lung,37.9 µM
same,TGI,NCI-H23 lung,7.25 µM
same,TGI,NCI-H460 lung,> 45.6 µM
same,TGI,NCI-H522 lung,22.5 µM
same,TGI,NCI/ADR-RES ovarian,39 µM
same,TGI,OVCAR-3 ovarian,3.38 µM
same,TGI,OVCAR-4 ovarian,6.68 µM
same,TGI,OVCAR-5 ovarian,39.6 µM
same,TGI,OVCAR-8 ovarian,4.15 µM
same,TGI,PC-3 prostate,7.38 µM
same,TGI,RPMI-8226 leukemia,7.12 µM
same,TGI,RXF 393 renal,5.79 µM
same,TGI,SF-268 CNS,5.7 µM
same,TGI,SF-295 CNS,62.3 µM
same,TGI,SF-539 CNS,12.3 µM
same,TGI,SK-MEL-2 melanoma,8.82 µM
same,TGI,SK-MEL-28 melanoma,7.57 µM
same,TGI,SK-MEL-5 melanoma,35 µM
same,TGI,SK-OV-3 ovarian,67.1 µM
same,TGI,SN12C renal,8.1 µM
same,TGI,SNB-19 CNS,40.7 µM
same,TGI,SNB-75 CNS,15.3 µM
same,TGI,SW-620 colon,4.49 µM
same,TGI,T-47D breast,3.86 µM
same,TGI,TK-10 renal,26.8 µM
same,TGI,U251 CNS,11 µM
same,TGI,UACC-257 melanoma,10.2 µM
same,TGI,UACC-62 melanoma,8.77 µM
same,TGI,UO-31 renal,4.42 µM
